Source: US4287035A, “Method for producing rapid pH changes” (priority 1979, dated 1981)
“Also recorded” adds a separate entry of the source. Read-outs that look alike come from different tables or passages of the source. One block for each compound: values may come before it.

What was measured:
[1] = pK values of representative molecules in ground state (S0) and first excited singlet state (S1), Table I; assay type: physicochemical; details: S0 to S1
Description: As shown by the data of the tables set forth in Ireland et al., the phenomenon is quite general and is characteristic of bases as well as acids. Ireland et al. is hereby incorporated by reference. Values of pK for representative molecules in the ground state (S0) and the first excited singlet state (S1) are given in Table I. Deprotonation results in increased acidity whereas protonation increases the basicity of the solution. […] The change in pK may be quite large.

[2] = Comparison of proton transfer time and excited state lifetime; assay type: physicochemical; details: for proton transfer time: excited state; for ability to produce pH change: on electronic excitation
Description: Consider the situation wherein the proton transfer time for either protonation or deprotonation is longer than the excited state lifetime of the molecules in question. In this situation, it is not possible to achieve an acid-base equilibrium during the excited state lifetime. As a result, some of the photons that could be used to produce protons under acid-base equilibrium conditions are no longer available for this purpose because the excitation produced by them is lost in various decay processes from the excited state (see FIG. 1). It will be apparent therefore, that to maximize the pH change for a particular concentration and radiation fluence, it is highly desirable that the proton transfer time be substantially shorter than the excited state lifetime.
It can, however, be readily determined for any compound of interest by means of time resolved spectroscopy of species in the solution. In the case of an acid reaction of the type shown in reaction (1), these would be the acid AH and the anion A^-. Such spectroscopy permits the concentrations of these species to be ascertained.
The requisite spectroscopic measurements are quite straightforward if (a) the excited states of both AH and A^- fluoresce, (b) the fluorescence from the excited states of AH and A^- is sufficiently spectrally shifted that they can be distinguished from one another, and (c) excited state protonation and deprotonation occur with retention of the electronic excitation. […] In those instances where they are not met it is still possible to obtain the necessary information by means of various techniques well known to those versed in the spectroscopic arts. Thus, for example, lack of fluorescence from the excited states of AH and A^- can be overcome by probing with excited-state absorption spectroscopy rather than emission spectroscopy.

[3] = Excited state protonation/deprotonation of 2-naphthol-6-sulfonate by picosecond laser/streak camera fluorescence; assay type: physicochemical
Description: A number of runs were made to obtain measurements from which the rates of excited state protonation and deprotonation kf and kb, respectively, could be determined for the reaction: [formula] […] As long as the solution is not so acidic as to make the protonation reaction fast (pH≤3), the rate of excited state proton transfer is simply determined from the risetime of the anion emission.
Since the fluorescence of 2-naphthol-6-sulfonate (λmax ~360 nm) is considerably shifted from that of its anion (λmax ~430 nm), only the anion emission is recorded when 450±10 nm spectral filter 14 is placed between the sample cell 12 and the slit of streak camera 15. FIG. 4 is a plot of the risetime (10-90%) of the emission from the 2-naphthol-6-sulfonate anion versus the initial pH of the solution. Individual points represent the average of four to six separate streak camera exposures. […] At very high acidities, the protonation rate becomes so rapid that the temporal profile of the excited anion emission follows that of the protonated species.
By measuring the time history of both anionic and acidic species under a variety of experimental conditions and using a kinetic scheme which includes terms for the fluorescence lifetimes and quenching, the complete kinetics of the excited state protonation deprotonation are readily obtained. For 2-naphthol-6-sulfonate, kf =(1.02±0.3)×10^9 sec^-1 and kb =(9.0±3)×10^10 l-mole^-1 -sec^-. The solid line of FIG. 4 is a fit using a kinetic model with kf and kb having these values.

[4] = cited from earlier work; for pK(S0): ground state
[5] = pH jump (more acidic) by 266 nm irradiation of 2-naphthol-6-sulfonate solution
Description: A single 30 psec pulse 4 at 1064 nm is extracted from the pulse train of mode-locked Nd:YAG laser 1 by means of Blumlein electronic switchout unit 3. The flowing dye 2 serves to mode lock laser 1. A second harmonic of pulse 4 is generated at 532 nm in KDP crystal 5.
Wavelengths other than 532 nm are then removed from pulse 4 by means of spectral filters 6. The 532 nm pulse is reflected from mirror 7 through ADP crystal 8 where it in turn is frequency doubled to produce the fourth harmonic at 266 nm.
Beam splitter 11 directs a portion of the 266 nm pulse to energy meter 20. […] The beam size on sample 12 is ~0.1 mm. […] Appropriate filters 14 are used to isolate various emission bands.
The pH of the solutions was adjusted by addition of reagent grade HCl or NaOH and was measured on a pH meter (Fisher Model 230) accurate to about 0.1 pH unit.

[6] = ground state, cited from earlier work
[7] = cited from earlier work
[8] = Excited state protonation of coumarin 102 by time-resolved fluorescence; assay type: physicochemical
Description: (§1) A proton attaches at the carbonyl site by the reaction [formula] Here Kp is the protonation rate constant and kdp is the deprotonation rate constant.
(§2) Experimental runs utilized laser grade coumarin 102 (Eastman) which was maintained at a concentration of 1.0×10^-3 M in a 1:1 H2 O:ethanol solvent. Deionized, distilled water and reagent grade ethanol were used for all of the runs. The solution pH was varied by the addition of reagent grade HCl and measured to an accuracy of 0.05 pH unit with a pH meter (Markson 90). The apparatus of FIG. 3 was modified to the extent that ADP crystal 8 was replaced by a KDP sum frequency generator to produce […] radiation which excited the sample. Filter 9 was either a 435 nm interference filter or a Corning 2-62 filter to isolate fluorescence from coumarin 102 and its cation, respectively.
The experimental runs were made to obtain measurements of the time history of both species under a variety of experimental conditions.

[9] = pH jump (more basic) by irradiation of coumarin 102 solution; assay type: physicochemical
Description: as §1, §2

[10] = 1.0×10^-3 M in water, 266 nm, 20 psec pulse
[11] = reaction as drawn in the line of Table II

pK change upon excitation [1]: 7
results with freshly prepared and day-old solutions ([3]; 1.0×10^-3 M in water): identical
increase in H3O^+ ([5]; 20 psec, 266 nm pulse, typically 30 μJ): more than 10^-4 M
Structure (SMILES): O=S(=O)(O)c1ccc2cc(O)ccc2c1 [2-Naphthol-6-Sulfonate]
excited state lifetime [2]: 1e-08 s
proton transfer time [2]: less than 1×10^-9 sec
ability to produce pH change [2]: can be used to produce large and very rapid pH modulation
rate of excited state deprotonation/proton transfer, kf [3, 10]: (1.02±0.3)×10^9 sec^-1
rate of excited state protonation, kb [3, 10]: (9.0±3)×10^10 l-mole^-1 -sec^-
risetime (10-90%) of anion emission versus initial pH ([3]; 450±10 nm, initial pH varied): As the solution becomes more acidic, the risetime becomes more rapid
pK(S0) [4]: 9.1
excited state acid-base equilibrium [5]: excited state acid-base equilibrium is achieved
excited state lifetime [5]: about 10 nsec
proton transfer time ([5]; excited state): less than 1 nsec

Structure (SMILES): Oc1ccc2ccccc2c1 [2-Naphthol]
excited state lifetime [2]: ~ 6×10^-9 sec
proton transfer time [2]: 2e-08 s
ability to produce pH change [2]: cannot; also recorded: the amount of the change is substantially less than that which can be achieved with 2-naphthol-6-sulfonate
pK(S0) [4]: 9.5

Structure (SMILES): Nc1ccc2ccccc2c1 [2-Naphthylamine]
pK(S0) [6, 11]: ≥ 14
pK(S0) ([6]; second 2-Naphthylamine line, reaction drawing 7): 4.1

Structure (SMILES): c1ccc2nc3ccccc3cc2c1 [Acridine]
pK(S0) [6, 11]: 5.5

Structure (SMILES): c1ccc(N=Nc2ccccc2)cc1 [Azobenzene]
pK(S0) [6, 11]: -2.90

pK change upon excitation [1]: 29
Structure (SMILES): c1ccc2c(c1)Cc1ccccc1-2 [Fluorene, reference compound]

Structure (SMILES): c1ccc2ccccc2c1 [Naphthalene]
pK(S0) [6, 11]: -4.0

Structure (SMILES): c1ccc2c(c1)ccc1ccccc12 [Phenanthrene, reference compound]
acidity/basicity in ground and excited state ([4]; ground state versus first excited singlet state): becomes less acidic (more basic) in the excited state
pK(S0) [4]: -3.5

Structure (SMILES): O=c1c2ccccc2oc2ccccc12 [Xanthone]
triplet state lifetime [7]: several to tens of milliseconds
pK(S0) [6, 11]: -4.1

Structure (SMILES): O=C(c1ccccc1)c1ccccc1 [benzophenone]
triplet state lifetime [7]: several to tens of milliseconds

pH after pH jump ([9]; initial pH 4, 355 nm pulses >1 mJ): 4.1
Structure (SMILES): Cc1cc(=O)oc2c3c4c(cc12)CCCN4CCC3 [coumarin 102]
deprotonation during excited state lifetime ([8]; 1:1 H2O:ethanol): very small
excited state acid-base equilibrium ([8]; 1:1 H2O:ethanol): excited state acid-base equilibrium is not achieved
excited state lifetime ([8]; 1.0×10^-3 M in 1:1 H2O:ethanol): 3.3±0.3 nsec
excited state protonation rate constant kp ([8]; 1.0×10^-3 M in 1:1 H2O:ethanol, 355 μm (so in the source) excitation): (1.6 ±0.3)×10^10 l-mole^-1 -sec^-1
quenching of excited states ([9]; concentrations near 10^-3 M): no evidence of quenching of excited states
